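Tested at 5 concentrations; 48 h exposure; 96-well plates; endpoints linearly interpolated, else capped at highest concentration. The concentration for 50% growth inhibition is given as GI50.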 The source made the active and inactive calls. No stated cut-off is given here; in the data, active = GI50 up to about 1.1 µM and inactive = higher.
Experiments:
Assay in all cases: NCI-60 cell line screen, 48 h
SK-MEL-2 = system: SK-MEL-2
SK-MEL-5 = system: SK-MEL-5
Malme-3M = system: Malme-3M
786-0 = system: 786-0
NCI-H226 = system: NCI-H226
SF-539 = system: SF-539
UACC-257 = system: UACC-257
LOX IMVI = system: LOX IMVI
M19-MEL = system: M19-MEL
HCC 2998 = system: HCC 2998
A549 = system: A549
OVCAR-3 = system: OVCAR-3
HL-60 = system: HL-60
NCI-H23 = system: NCI-H23
SR = system: SR

Compound	GI50 (SK-MEL-2)	GI50 (SK-MEL-5)	GI50 (Malme-3M)	GI50 (786-0)	GI50 (NCI-H226)	GI50 (SF-539)	GI50 (UACC-257)	GI50 (LOX IMVI)	GI50 (M19-MEL)	GI50 (HCC 2998)	GI50 (A549)	GI50 (OVCAR-3)	GI50 (HL-60)	GI50 (NCI-H23)	GI50 (SR)
O=C1/C(=C/c2ccccc2)CN(C(=O)Oc2ccc([N+](=O)[O-])cc2)C/C1=C\c1ccccc1	14.2 µM (inactive)	3.64 µM (inactive)	> 10 µM (inactive)	4.49 µM (inactive)	> 10 µM (inactive)	9.42 µM (inactive)	5.18 µM (inactive)	0.676 µM (active)	1.77 µM (inactive)	2.74 µM (inactive)	> 10 µM (inactive)	3.73 µM (inactive)	1.04 µM (active)	7.76 µM (inactive)	2.1 µM (inactive)
O=c1[nH]c2cc([N+](=O)[O-])ccc2nc1/C(=N/Nc1ccccc1)C(O)c1ccccc1Cl (centres undefined)	> 100 µM (inactive)	33 µM (inactive)	85.3 µM (inactive)	> 100 µM (inactive)	80.2 µM (inactive)	44.9 µM (inactive)	> 100 µM (inactive)	> 100 µM (inactive)	52.8 µM (inactive)	22.3 µM (inactive)	41.9 µM (inactive)	59.3 µM (inactive)	> 100 µM (inactive)	90.8 µM (inactive)	
COc1cccc(C2c3cc4c(cc3OC(O)(CO)C2C(=O)O)OCO4)c1.COc1cccc(C2c3cc4c(cc3OC3(O)COC(=O)C23)OCO4)c1 (centres undefined)	> 100 µM (inactive)	67.1 µM (inactive)	> 100 µM (inactive)	> 100 µM (inactive)	50 µM (inactive)	> 100 µM (inactive)	41.5 µM (inactive)	52.1 µM (inactive)	76.9 µM (inactive)	> 100 µM (inactive)	82.2 µM (inactive)	69.5 µM (inactive)	33.7 µM (inactive)	43.5 µM (inactive)	38.8 µM (inactive)
C=CCn1c(=S)sc2c(C(=O)OCC)c3c(C)cc(C)cn3c2c1=O	> 100 µM (inactive)	> 100 µM (inactive)	> 100 µM (inactive)	61.1 µM (inactive)	> 100 µM (inactive)	80.5 µM (inactive)	> 100 µM (inactive)	> 100 µM (inactive)	> 100 µM (inactive)	> 100 µM (inactive)	> 100 µM (inactive)	> 100 µM (inactive)	> 100 µM (inactive)	> 100 µM (inactive)	> 100 µM (inactive)
COc1ccccc1NC(=O)C(CC(C(=O)Nc1ccccc1OC)/C(C)=N/NC(=O)c1ccccc1O)/C(C)=N/NC(=O)c1ccccc1O (centres undefined)	> 100 µM (inactive)	47 µM (inactive)	> 100 µM (inactive)	> 100 µM (inactive)	60.3 µM (inactive)	54.2 µM (inactive)	> 100 µM (inactive)	> 100 µM (inactive)	> 100 µM (inactive)	> 100 µM (inactive)	82.4 µM (inactive)	54.1 µM (inactive)	47.5 µM (inactive)	> 100 µM (inactive)	
CC(=O)N1CCc2[nH]c3ccccc3c2CC1	> 100 µM (inactive)	> 100 µM (inactive)	> 100 µM (inactive)	> 100 µM (inactive)		> 100 µM (inactive)	> 100 µM (inactive)	> 100 µM (inactive)	> 100 µM (inactive)	> 100 µM (inactive)	> 100 µM (inactive)	> 100 µM (inactive)	> 100 µM (inactive)	> 100 µM (inactive)	
Cc1cc(CC(O)c2ccc(Cl)c(Cl)c2)nc(O)n1 (centres undefined)	61.7 µM (inactive)	57.4 µM (inactive)	81.8 µM (inactive)	17.6 µM (inactive)	26.9 µM (inactive)		> 100 µM (inactive)		58.6 µM (inactive)		21.8 µM (inactive)	32.2 µM (inactive)	31 µM (inactive)	27.5 µM (inactive)	24.7 µM (inactive)
O=[N+]([O-])c1cccc(C2=NN(c3ccccc3)C3c4ccccc4OCC23)c1 (centres undefined)	> 100 µM (inactive)		> 100 µM (inactive)	> 100 µM (inactive)		> 100 µM (inactive)	> 100 µM (inactive)	> 100 µM (inactive)	> 100 µM (inactive)	> 100 µM (inactive)	> 100 µM (inactive)	> 100 µM (inactive)	66.1 µM (inactive)	> 100 µM (inactive)	
Cc1ccc(Nc2nc(-c3ccc(-c4ccc([N+](=O)[O-])cc4)o3)cs2)cc1	> 100 µM (inactive)		65.2 µM (inactive)	68.5 µM (inactive)	48.3 µM (inactive)	93.8 µM (inactive)	21.5 µM (inactive)	33.8 µM (inactive)	51.2 µM (inactive)	23.4 µM (inactive)	52.7 µM (inactive)	> 100 µM (inactive)	58.7 µM (inactive)	25.6 µM (inactive)	11.4 µM (inactive)

— ChEMBL document CHEMBL1201862, “PubChem BioAssay data set” (2004)
